Legend:
[1] = system: SKOV-3 cells; assay: Untargeted LC-MS comparative metabolomics of inhibitor-treated cells; format: cell-based, human; settings: 4 h
Experimental: (§1) The following LC-MS conditions were used for analysis of cancer cell metabolomes. Cell pellets were harvested by scraping, isolated by centrifugation at 1,400×g, and dounce-homogenized in 4 mL of a 2:1:1 mixture of chloroform:methanol:Tris buffer (50 mM Tris*HCl, pH 8.0). Samples that were analyzed by targeted LC-MS were homogenized in the presence of the following synthetic standards: C15:0 MAG (50 pmol), C17:0 LPA (50 pmol), and 13C-C16:0 MAGE (25 pmol). Organic and aqueous layers were separated by centrifugation at 1,260×g for 5 min. The organic layer was then removed, dried under a stream of N2, and re-solubilized in 100 μL of chloroform, of which 30 μL was analyzed by LC-MS. Extraction of LPA was performed by acidifying the remaining aqueous layer to a final concentration of 5% formic acid, followed by the addition of 2 mL of chloroform. The mixture was vortexed, the organic layer removed, concentrated to dryness, and dissolved in 100 μL of chloroform, of which 30 μL was analyzed by LC-MS.
(§2) LC-MS analysis was performed using an Agilent 1100 LC-MSD SL instrument. […] Mobile phase A was composed of a 95:5 ratio of water:methanol and mobile phase B consisted of 2-propanol, methanol, and water in a 60:35:5 ratio. Solvent modifiers such as 0.1% formic acid and 0.1% ammonium hydroxide were used to assist ion formation as well as improve the LC resolution in both positive and negative ionization modes respectively. The flow rate for each run started at 0.1 mL/min for 5 min, to alleviate backpressure associated with injecting chloroform. The gradient started at 0% B and increased linearly to 100% B over the course of 40 min with a flow rate of 0.4 mL/min, followed by an isocratic gradient of 100% B for 7 min before equilibrating for 8 min at 0% B with a flow rate of 0.5 mL/min.
MS analysis was performed with an electrospray ionization (ESI) source. The capillary voltage was set to 3.0 kV and the fragmentor voltage to 100V. The drying gas temperature was 350° C., the drying gas flow rate was 10 L/min, and the nebulizer pressure was 35 psi. Untargeted data was collected using a mass range of 200-1000 Da and exported as common data format (.CDF) files for computational analysis. Differentially expressed metabolites between sample pairs were identified using the XCMS analyte profiling software (http://metlin/download) that aligns mass peaks from two LC-MS traces and quantifies the relative intensities of global metabolites (5). Significant inhibitor-sensitive peak changes were confirmed by manual quantification using the area under the peak normalized to total ion current. Targeted LC-MS measurements were made using selected ion monitoring (SIM). Peaks were quantified by measuring the area under the peak and normalized to an internal standard (C15:0 MAG) or endogenous lipid (palmitic acid). Absolute MAGE levels were estimated by comparison to a 13C-MAGE standard.
Human ovarian cancer cell lines were obtained form the National Cancer Institute's Developmental Therapeutics Program. The melanoma lines C8161 and MUM-2B were obtained form Mary Hendrix. Cells were maintained in RPMI medium 1640 with 10% (v/v) fetal calf serum at 37° C. in a humidified atmosphere of 5% CO2/95% air. At approximately 80% confluency, cells were trypsinized, counted with the aid of a hemocytometer, and 2.5×10^6 cells were plated in 6 cm dishes. 20 h after plating cells were washed twice with PBS and supplemented with serum free RPMI containing 0.5% BSA (Sigma)(BSA-RPMI) with AS115 (0.01-10 μM) or vehicle (DMSO) at 0.1%. After incubation for 4 h the cells were harvested and analyzed by ABPP or LC-MS.
These experiments were performed using the method of untargeted liquid chromatography-mass spectrometry (LC-MS) for comparative metabolomics. Cells were treated with AS115 (10 μM) or DMSO for 4 h and analyzed by untargeted LC-MS methods. […] Relative mass signals are shown in Table 1, represented as the average values and standard error for three independent experiments.

[2] = system: C8161 melanoma cells; assay: LC-MS MAGE lipid levels in inhibitor-treated melanoma cells; format: cell-based, human; settings: compared to DMSO controls
Experimental: as §1, §2
(§3) MS analysis was performed with an electrospray ionization (ESI) source. […] Differentially expressed metabolites between sample pairs were identified using the XCMS analyte profiling software (http://metlin/download) that aligns mass peaks from two LC-MS traces and quantifies the relative intensities of global metabolites (5). Significant inhibitor-sensitive peak changes were confirmed by manual quantification using the area under the peak normalized to total ion current. […] Peaks were quantified by measuring the area under the peak and normalized to an internal standard (C15:0 MAG) or endogenous lipid (palmitic acid). […]
(§4) Human ovarian cancer cell lines were obtained form the National Cancer Institute's Developmental Therapeutics Program. […] At approximately 80% confluency, cells were trypsinized, counted with the aid of a hemocytometer, and 2.5×10^6 cells were plated in 6 cm dishes. […] After incubation for 4 h the cells were harvested and analyzed by ABPP or LC-MS. […]

[3] = system: MUM-2B melanoma cells; assay: as above; format: cell-based, human; settings: compared to DMSO controls
Experimental: as §1, §2, §3, §4

[4] = system: background 2-thioacetyl MAGE hydrolyzing activity in membrane proteomes; assay: Background 2-thioacetyl MAGE hydrolyzing activity in membrane proteomes; format: biochemical; settings: FIG. 14
Experimental: KIAA1363-transfected cell lines were used for substrate-based enzyme activity assays. Membrane proteomes were adjusted to 0.5 mg/ml in 50 mM tris pH 7.4 buffer containing 5 mM CHAPS detergent. Immediately prior to the assay, 5,5′-dithiobis-(2-nitrobenzoic acid) (DTNB, Sigma) was added at 0.5 mM to the membrane proteome to prepare the Assay Buffer. For analysis of inhibitors, 1 ul of a 50× inhibitor solution in DMSO was added to 48 ul of Assay Buffer and preincubated for 20 min at RT. The substrate 2-thioacetyl MAGE (Cayman Chemical) was prepared by evaporating off the original solvent under nitrogen and redissolving the residue in DMSO. 1 ul of 5 mM 2-thioacetyl MAGE stock is added to each assay well to begin the assay. Absorbance is determined at A405 nm.
The background 2-thioacetyl MAGE hydrolyzing activity in membrane proteomes that is not inhibited by AS-115 is inhibited by the broad serine protease inhibitor PMSF (FIG. 14). The IC50 of AS-115 was measured using the 2-thioacetyl MAGE substrate-based assay with Flag-KIAA1363/293T cell membrane proteome (FIG. 15).

## CCCCOCC1CCCCC1COCCNC(=O)Oc1ccccc1F (stereo not drawn) [AS115]
[1]; 10 μM
  Levels of lipophilic metabolites (m/z 317, 345, and 347): substantial reduction
  Levels of typical lipid species (free fatty acids, phospholipids, ceramides, monoacylglycerides): none of which were significantly altered
[1]; AS115 10 μM or DMSO
  Relative mass signal DMSO/AS115, Ceramide C16: 0.53
  Relative mass signal DMSO/AS115, Ceramide C18: 0.73
  Relative mass signal DMSO/AS115, FFA C14: 0.69
  Relative mass signal DMSO/AS115, FFA C16: 0.69
  Relative mass signal DMSO/AS115, FFA C18: 0.76
  Relative mass signal DMSO/AS115, FFA C18:1: 0.56
  Relative mass signal DMSO/AS115, FFA C20:4: 1.04
  Relative mass signal DMSO/AS115, MAG C16: 1.00
  Relative mass signal DMSO/AS115, MAG C18:1: 0.83
  Relative mass signal DMSO/AS115, PA C32: 1.01
  Relative mass signal DMSO/AS115, PA C34: 1.41
  Relative mass signal DMSO/AS115, PA C34:1: 0.95
  Relative mass signal DMSO/AS115, PA C36:1: 0.99
  Relative mass signal DMSO/AS115, PA C36:2: 0.74
  Relative mass signal DMSO/AS115, PC C32: 1.07
  Relative mass signal DMSO/AS115, PC C34: 0.96
  Relative mass signal DMSO/AS115, PC C34:1: 1.01
  Relative mass signal DMSO/AS115, PC C36:1: 0.68
  Relative mass signal DMSO/AS115, PC C36:2: 1.07
  Relative mass signal DMSO/AS115, PE C32: 1.13
  Relative mass signal DMSO/AS115, PE C34: 0.94
  Relative mass signal DMSO/AS115, PE C34:1: 0.84
  Relative mass signal DMSO/AS115, PE C36:1: 0.94
  Relative mass signal DMSO/AS115, PE C36:2: 0.61
  Relative mass signal DMSO/AS115, PG C32: 0.78
  Relative mass signal DMSO/AS115, PG C34: 0.95
  Relative mass signal DMSO/AS115, PG C34:1: 0.98
  Relative mass signal DMSO/AS115, PG C36:1: 0.89
  Relative mass signal DMSO/AS115, PG C36:2: 1.04
  Relative mass signal DMSO/AS115, PS C32: 1.06
  Relative mass signal DMSO/AS115, PS C34: 1.02
  Relative mass signal DMSO/AS115, PS C34:1: 0.96
  Relative mass signal DMSO/AS115, PS C36:1: 0.99
  Relative mass signal DMSO/AS115, PS C36:2: 1.13
[1]; AS115 10 μM or DMSO, p<0.001
  Relative mass signal DMSO/AS115, MAGE C16: 5.29
  Relative mass signal DMSO/AS115, MAGE C18: 5.86
  Relative mass signal DMSO/AS115, MAGE C18:1: 4.42
[2]
  Levels of MAGE lipids: significantly reduced
[3]
  Levels of MAGE lipids: significantly reduced
[4]
  Background 2-thioacetyl MAGE hydrolyzing activity: not inhibited
